# Laboratory results: PMC7033200, “Annexin A1 accounts for an anti-inflammatory binding target of sesamin metabolites” (NPJ Science of Food, 2020)
# Legend:
# [1] = test system: TNFα production in U937 cells; assay: TNFα production in PMA/LPS-stimulated U937 cells (ELISA); type: cell-based, human; details: for IC50: Homo sapiens, U-937, PMA-differentiated U937 cells, LPS, 12 h, ELISA; for inhibition of TNFα production induced by LPS and PMA: U937 cells, dose-dependent
# Method: (§1) For enzyme-linked immunosorbent assay (ELISA) assays, U937 cells (control or ANX A1 KD) were seeded on 96-well plates and stimulated by adding 100 nmol L^−1 phorbol myristate acetate (Sigma-Aldrich, MO, USA) for 24 h. The cells were treated for 12 h with LPS (100 ng mL^−1) with or without adding the indicated sesamin, SC1, or SC2 and/or PD98059 concentrations. The cell culture supernatants were collected, and TNFα or ANX A1 production was measured using ELISA (TNFα: R&D Systems; ANX A1: USCN, Wuhan, China) according to the manufacturer’s instructions.
# [2] = test system: TNFα production in ANX A1 KD U937 cells; assay: TNFα production in ANX A1 knockdown U937 cells (ELISA); type: cell-based, human; details: U937 cells with knocked down ANX A1
# Method: U937 cells were maintained in RPMI-1640 medium (Gibco/Thermo Fisher Scientific, MA, USA) supplemented with 10% fetal bovine serum. To generate a stable ANX A1-KD cell line, lentivirus vectors encoding a control or shRNA sequence targeting ANX A1 (Supplementary Methods) were transfected into 293FT cells. The lentivirus was prepared according to the manufacturer’s instructions (Invitrogen, MA, USA). U937 cells were infected with the lentivirus, and a stable cell line was selected by maintaining the cells in medium containing 10 μg mL^−1 blasticidin (Invitrogen) for 1 week.
# as §1
# [3] = test system: extracellular ANX A1 release from U937 cells; assay: Extracellular release of ANX A1 from U937 cells (ELISA); type: cell-based, human; details: for cellular release of ANX A1: PMA/LPS-treated U937 cells
# Method: as §1
# [4] = biological target: T1, ANX A1 (Homo sapiens, UniProt P04083); assay: Isothermal titration calorimetry (ITC) binding to ANX A1; details: for dH / dS: 3 mmol L^-1 Ca^2+; for Kd: Ca^2+ form of ANX A1, 3 mmol L^-1 CaCl2, ITC, 298 K, read-out: binding affinity (Kd)
# T1 construct: The ANX A1 cDNA fragment, full-length (1–346 a.a.) or deletion mutants; GST (pGEX-6P-1) (N, cleaved yes); made in house; host or cells: Escherichia coli BL21 (DE3)
# T1 sequence (P04083 1-346): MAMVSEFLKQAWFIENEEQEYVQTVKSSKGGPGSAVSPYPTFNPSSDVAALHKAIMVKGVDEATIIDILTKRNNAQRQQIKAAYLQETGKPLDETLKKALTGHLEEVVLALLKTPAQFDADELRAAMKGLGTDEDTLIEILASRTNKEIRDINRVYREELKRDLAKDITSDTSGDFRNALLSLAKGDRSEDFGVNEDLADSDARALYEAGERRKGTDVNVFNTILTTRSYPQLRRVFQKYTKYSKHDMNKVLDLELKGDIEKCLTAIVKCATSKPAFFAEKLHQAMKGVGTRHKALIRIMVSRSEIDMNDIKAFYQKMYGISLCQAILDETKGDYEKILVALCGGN
# Method: (§2) ITC experiments were performed at 298 K with ITC buffer (20 mmol L^−1 Tris-HCl (pH 7.5), 100 mmol L^−1 NaCl, 2% dimethyl sulfoxide) using a MicroCal iTC200 (Malvern). SC1 or SC2 were dissolved at 2 mmol L^−1 with ITC buffer and titrated into 1 μmol L^−1 of ANX A1 protein with or without 2 mmol L^−1 EDTA (for apo-ANX A1) or 3 mmol L^−1 CaCl2 (for Ca^2+-bound ANX A1). The titration was performed by injecting 2 µL of the syringe solution at intervals of 120 s. The binding isotherms were analysed using SEDPHAT.[54]
# [5] = test system: CCl4-treated ANX A1-KO mice; assay: CCl4-induced liver damage and inflammation in ANX A1-KO mice; type: in vivo, mouse (C57BL/6J)
# Text: ANX A1-deficient mice (C57BL/6J) were generated by homologous recombination at Trans Genic Inc. (Fukuoka, Japan), as shown in Fig. S4. The vector targeting ANX A1 for deleting the coding region (exons 3–6) containing selectable neomycin-resistance (Neo) and PGK promoter genes was used. The targeting vector contained the 3.0 kbp of the 5′ arm flanking sequence and 4.5 kbp of the 3′ arm flanking sequence. The PGK-Neor gene was deleted by crossing with the CAG-flp mouse.[58]
# (§3) All protocols for animal procedures were approved by the Ethics Committee of Animal Experiments in accordance with the Internal Regulations on Animal Experiments at Keio University and Suntory Holdings Ltd, which are based on the Law for the Humane Treatment and Management of Animals (Law No. 105, 1 October 1973, as amended on 30 May 2014). Male C57BL/6J wild-type (WT) mice were purchased from CLEA Japan Inc. (Tokyo, Japan). WT and ANX A1-KO mice at 7 to 9 weeks of age received an intraperitoneal injection of vehicle (corn oil, 16.7 mL kg^−1) or CCl4 (50 μL kg^−1). To evaluate the effect of sesamin, vehicle (olive oil, 5 mL kg^−1) or sesamin (25 mg kg^−1) was orally administered twice at 1 h before and 7 h after CCl4 injection. To evaluate the effect of SC1, vehicle (ethanol dissolved in corn oil at a ratio of 1:19, 5 mL kg^−1) or SC1 (50 mg kg^−1) was intraperitoneally administered twice as mentioned above. Mice were euthanized after 12 or 24 h […] CCl4 injection before collecting blood and liver samples. Plasma AST, ALT, or LDH were measured using L-type AST J2, L-type ALT J2 or L-type LD J (Wako, Osaka, Japan), respectively. The liver tissues were fixed with 10% formalin, embedded in paraffin sectioned to 3–4 μm thickness and mounted on slides. Liver sections were de-paraffinized with xylene and re-hydrated with alcohols. The staining was performed with eosin solution for the cytoplasm and Mayer’s haematoxylin solution or monoclonal galectin-3 antibody (1:100, BioLegend, CA, USA). Slides were observed under a light microscope (BX52, Olympus, Japan), and images were analysed using LUMINA VISION (Mitani Corporation, Japan).
# (§4) Production of TNFα or MCP-1 in the plasma or liver was measured using a V-PLEX Proinflammatory Panel 1 Mouse Kit or U-PLEX Mouse MCP-1 assay Kit (Meso Scale Diagnostics, USA), respectively. Plasma or liver tissues homogenised in phosphate-buffered saline (Nacalai Tesque) were applied into the pre-coated plate with antibodies against target proteins before labelling with secondary antibodies conjugated to chemiluminescence. The signal intensity was measured using an analyser (SECTOR Imager 6000, Meso Scale Diagnostics, USA).
# (§5) Total RNA of the liver was extracted using an RNeasy Mini Kit (Qiagen, USA), and the cDNAs were prepared using High-Capacity cDNA Reverse Transcription Kits (Thermo Fisher Scientific, USA). Quantitative reverse transcription-PCR was performed according to the manufacturer’s instructions using the TaqMan® Gene Expression Assay System (Applied Biosystems, USA) with a 7900HT Fast Real Time PCR System (Applied Biosystems, USA). The levels of target mRNAs were normalised using the expression of the 18S ribosomal RNA. The primer IDs are listed in Supplementary Table 1.
# [6] = test system: CCl4-treated WT mice; assay: CCl4-induced liver damage and inflammation in WT mice; type: in vivo, mouse (C57BL/6J)
# Text: as §3, §4, §5
# [7] = test system: phosphorylated (Ser27) ANX A1 in U937 cells; assay: ANX A1 Ser27 phosphorylation in U937 cells (western blotting); type: cell-based, human
# Method: For analyses of ANX A1 phosphorylation, the U937 cells treated as above were lysed with NP40 lysis buffer (20 mmol L^−1 Tris-HCl (pH 7.5), 150 mmol L^−1 NaCl, 1% NP40), and the lysates (10 μg) were subjected to SDS-PAGE, followed by western blotting using antibodies against ANX A1 or phosphorylated (Ser27) ANX A1 (dilution: 1:1000).
# [8] = test system: T2, recombinant ANX V; assay: Affinity nanobeads binding assay with recombinant annexin V
# T2 construct: purchased Abcam
# [9] = test system: ANX A1 mutants (G210W, F221S, and V251W); assay: ITC binding analysis using recombinant ANX A1 point mutants; set-up: species or system human; details: V251W in contrast with ANX A1 WT
# Method: as §2
# Supplementary Fi g u re 3. Isothermal titra tion calori met ry analyses using ANX A1 […]
# Analyses of binding affinity between SC1 and ANX A1 (wild type (WT) or point mutants (G210W, F221S, or V251W)) using isothermal titration calorimetry ( ITC). […]
# (1 picture or pasted object on this page, not shown here)
# [10] = sesamin 25 mg kg^−1 orally twice, 24 h, ANX A1-null
# [11] = sesamin 25 mg kg^−1 twice, 12 h, qPCR, ANX A1-null
# [12] = sesamin 25 mg kg^−1 twice, 12 h after CCl4, ANX A1-null
# [13] = sesamin 25 mg kg^−1 twice, 24 h, qPCR, ANX A1-null
# [14] = sesamin 25 mg kg^−1 twice, 12 h, qPCR, WT
# [15] = sesamin 25 mg kg^−1 twice, 12 h after CCl4, WT
# [16] = sesamin 25 mg kg^−1 twice, 24 h, qPCR, WT
# [17] = SC1 50 mg kg^−1 intraperitoneally twice, 12 h after CCl4, ANX A1-null
# [18] = SC1 50 mg kg^−1 intraperitoneally twice, 12 h after CCl4, WT
# [19] = SC1 50 mg kg^−1 intraperitoneally twice, 24 h, WT
structure (smiles),measurement,setting,value
"Oc1ccc(C2OCC3C(c4ccc(O)c(O)c4)OCC23)cc1O (stereo not drawn) [SC2, (7α,7′α,8α,8′α)-7,9′:7′,9-diepoxylignane-3,3′,4,4′-tetraol]",IC50,[1],10.3 µM
same,inhibition of TNFα production induced by LPS and PMA,[1],significantly inhibited
same,inhibitory effects on TNFα production in ANX A1 knockdown cells,[2],disappeared
same,cellular release of ANX A1,[3],significantly enhanced
same,dH,[4]; ITC,-308.15 kcal/mol
same,dS,[4]; ITC,-1010.16 cal/mol K
same,Kd,[4],8.05 µM
"c1cc2c(cc1[C@H]1OC[C@H]3[C@@H]1CO[C@@H]3c1ccc3c(c1)OCO3)OCO2 [Sesamin, (7α,7′α,8α,8′α)-3,4:3′,4′-bis(methylenedioxy)-7,9′:7′,9-diepoxylignane]",plasma ALT,[5]; [10],not observed
same,plasma LDH,[5]; [10],not observed
same,liver injury around the central vein (histology),"[5]; sesamin 25 mg kg^−1 orally twice, H&E, ANX A1-null",not
same,MCP-1 mRNA expression in the liver,[5]; [11],not observed
same,TNFα mRNA expression in the liver,[5]; [11],not observed
same,galectin-3 mRNA expression in the liver,[5]; [11],not observed
same,MCP-1 protein in the plasma,[5]; [12],not
same,TNFα protein in the liver,[5]; [12],not
same,TNFα protein in the plasma,[5]; [12],not
same,accumulation of galectin-3-positive cells in the liver,"[5]; sesamin 25 mg kg^−1 twice, 24 h, histology, ANX A1-null",not
same,liver mRNA expression of Col1a1,[5]; [13],not
same,liver mRNA expression of αSMA,[5]; [13],not
same,inhibition of TNFα production induced by LPS and PMA,[1],little inhibitory effect
same,cellular release of ANX A1,[3],not
same,plasma ALT,"[6]; sesamin 25 mg kg^−1 orally twice (1 h before, 7 h after CCl4), 24 h, WT",significantly suppressed
same,plasma LDH,"[6]; sesamin 25 mg kg^−1 orally twice, 24 h, WT",significantly suppressed
same,liver injury around the central vein (histology),"[6]; sesamin 25 mg kg^−1 orally twice, H&E, WT",suppressed liver injury
same,MCP-1 mRNA expression in the liver,[6]; [14],significantly suppressed
same,TNFα mRNA expression in the liver,[6]; [14],significantly suppressed
same,galectin-3 mRNA expression in the liver,[6]; [14],significantly suppressed
same,MCP-1 protein in the liver,[6]; [15],significantly suppressed
same,MCP-1 protein in the plasma,[6]; [15],significantly suppressed
same,TNFα protein in the liver,[6]; [15],significantly suppressed
same,TNFα protein in the plasma,[6]; [15],significantly suppressed
same,accumulation of galectin-3-positive cells in the liver,"[6]; sesamin 25 mg kg^−1 twice, 24 h, histology, WT",suppressed
same,liver mRNA expression of Col1a1,[6]; [16],suppressed
same,liver mRNA expression of αSMA,[6]; [16],suppressed
same,binding activity with ANX A1 using ITC analysis,[4]; ITC,unable to detect any binding activity
"COc1cccc(-c2cc(=O)c3ccccc3o2)c1N [PD98059, reference compound]",effect on up-regulation of ANX A1 release,"[3]; treated 1 h prior to LPS, dose-dependent",inhibited
same,effect on SC1-induced phosphorylation of ANX A1,[7]; treated 1 h prior to LPS treatment,suppressed
"Oc1ccc(C2OCC3C(c4ccc5c(c4)OCO5)OCC23)cc1O (stereo not drawn) [SC1, (7α,7′α,8α,8′α)-3′,4′-methylenedioxy-7,9′:7′,9-diepoxylignane-3,4-diol]",MCP-1 expression in the liver,[5]; [17],no effect was observed
same,TNFα expression in the liver,[5]; [17],no effect was observed
same,plasma AST,"[5]; SC1 50 mg kg^−1 intraperitoneally twice, 24 h, ANX A1-null",not
same,IC50,[1],2.2 µM
same,inhibition of TNFα production induced by LPS and PMA,[1],significantly inhibited
same,inhibitory effects on TNFα production in ANX A1 knockdown cells,[2],disappeared
same,cellular release of ANX A1,[3],significantly enhanced
same,ANX A1 phosphorylation at Ser27,"[7]; after PMA and LPS treatment, dose-dependent, 12 h",significantly induced phosphorylation
same,ANX A1 phosphorylation at Ser27,[7]; without PMA and LPS stimulation,not observed
same,MCP-1 expression in the liver,[6]; [18],suppressed
same,TNFα expression in the liver,[6]; [18],suppressed
same,plasma ALT,[6]; [19],suppressed
same,plasma AST,[6]; [19],suppressed
same,plasma LDH,[6]; [19],suppressed
same,binding of recombinant ANX V to beads,[8],no binding
same,binding activity to SC1 of ANX A1 mutants,[9],disrupted the binding activity
same,dH,[4]; ITC,-452.11 kcal/mol
same,dS,[4]; ITC,-1491.41 cal/mol K
same,Kd,[4],2.77 µM
same,binding to apo-ANX A1,"[4]; Ca^2+ free (EDTA), ITC",No binding
